From paper PMC6321601 (Molecules, 2018) come the findings set out here.

In one data set the test system is STAT3. Description: Western blot assay, STAT3. The format is cell-based, human. The conditions noted are these: HepG-2, 24 h, different concentrations. The protocol: (§1) HepG-2 cells were treated with compound 10b for 24 h, and the cell lysates were collected. Then, the total protein was separated by SDS-PAGE and transferred to PVDF membranes. The membranes were incubated with primary antibodies (1:1000) at 4 °C overnight. After being washed with PBST (PBS + 0.5% Tween 20) 5 times, the membranes were incubated with HRP-conjugated secondary antibodies (1:5000 dilution) for 2 h at room temperature. The membranes were then washed with PBST 5 times and the protein blots were detected by ECL chemiluminescence.
(Immunoblotting shows a protein as a band on a membrane.)

The test system of the next data set is Balb/C mice. Description: In vivo acute toxicity assay. The conditions noted are these: intravenous injection; for percentage of death: three mice. On the procedure:
To evaluate the toxicity of compound 10b, an acute toxicity assay was performed using Balb/C mice.
Five-week-old Balb/C mice were purchased from the Chinese Academy of Sciences and maintained under specific pathogen free (SPF) conditions. […] The control group mice were treated with vehicle buffer intravenously. […] The compound 10b group mice were treated with compound 10b at doses of 2 mg/kg, 5 mg/kg, 10 mg/kg, 20 mg/kg, and 50 mg/kg respectively (three mice each dose). The clinical symptoms, deaths, and body weight were observed and recorded.

A further data set has as its system Bcl-2. Nature of the data set: Western blot assay, Bcl-2. The format is cell-based, human. Particulars: HepG-2, 24 h. The protocol: as §1
Data set [1] has as its system HepG-2 human hepatocellular carcinoma cells. Description: MTT assay, proliferation of HepG-2 cells. The format is cell-based. Particulars: mean of three independent experiments. Summed up:
(§2)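 HepG-2 and normal L-O2 liver cells in DMEM with 10% FBS were seeded and, after 12 h, exposed to graded compound concentrations for 72 h at 37 °C. Viability was read by MTT (4 h, formazan dissolved in DMSO, OD 570 nm), and IC50 values were calculated from these readings.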
On the technique in general: Tetrazolium assays rely on reduction of a dye to a coloured formazan, in cell work by metabolically active cells.

For a further data set, the system named is Bax. Nature of the data set: Western blot assay, Bax. The format is cell-based, human. Particulars: HepG-2, 24 h. On the procedure: as §1
A further data set has as its system P-STAT3. Description: Western blot assay, P-STAT3. Particulars: HepG-2, 24 h, dose-dependent. The format is cell-based, human. The protocol:
as §1

In data set [2] the test system is L-O2 human normal liver cells. Nature of the data set: MTT assay, toxicity against L-O2 normal cells. The conditions noted are these: 72 h incubation, mean of three independent experiments. The format is cell-based. Summed up: as §2
The test system of a further data set is caspase 3. Description: Western blot assay, caspase 3. The conditions noted are these: HepG-2, 24 h. The format is cell-based, human. On the procedure:
as §1

In the next data set the test system is Bim. Nature of the data set: Western blot assay, Bim. Particulars: HepG-2, 24 h. The format is cell-based, human. The protocol:
as §1

The next data set deals with HepG-2 cells. Nature of the data set: Cell apoptosis assay, Annexin-V/PI flow cytometry. The format is cell-based, human. The conditions noted are these: HepG-2, 48 h, 0, 1 and 2 µM. The protocol:
HepG-2 cells were seeded into a 24-well plate with 5 × 10^4/well/1 mL. After 12 h, cells were treated with compound 10b at different concentrations for 48 h. The cells were collected, washed with cold PBS, and stained with Annexin-V/PI according to the manufacturer’s instructions. Then, the cells were analyzed with flow cytometry.
A general note: A flow cytometer gives signals particle by particle.

The mark [3] stands for this setting: Homo sapiens, HepG2, 72 h incubation.

On to `CC(=O)OC(C)(C)/C=C/C(=O)[C@](C)(O)C1[C@H](OC(=O)CCC(=O)OCCCOc2no[n+]([O-])c2S(=O)(=O)c2ccccc2)C[C@@]2(C)C3CC=C4C(CC(O)C(=O)C4(C)C)[C@]3(C)C(=O)C[C@]12C` (stereo partly drawn) [Compound 10b, 4-(3-((4-(((9R,13R,14S,16R)-17-((R,E)-6-Acetoxy-2-hydroxy-6-methyl-3-oxohept-4-en-2-yl)-2-hydroxy-4,4,9,13,14-pentamethyl-3,11-dioxo-2,3,4,7,8,9,10,11,12,13,14,15,16,17-tetradecahydro-1H-cyclopenta[a]phenanthren-16-yl)oxy)-4-oxobutanoyl)oxy)propoxy)-3-(phenylsulfonyl)-1,2,5-oxadiazole 2-oxide], for which, in the data set with STAT3, the “total expression of STAT3” value was “remained little changed”. Further, the percentage of death is reported as 0/3 in the data set on Balb/C mice (2 mg/kg); 0/3 in the data set on Balb/C mice (5 mg/kg); 0/3 in the data set on Balb/C mice (10 mg/kg); 0/3 in the data set with Balb/C mice (20 mg/kg); 1/3 in the data set on Balb/C mice (50 mg/kg). In the data set on Balb/C mice (different doses (2-50 mg/kg), compared to the vehicle group), the body weight change result is given as “did not change”. Also, the “expression of Bcl-2” value in the data set with Bcl-2 was “substantially diminished”. Further, the figures for the IC50 in [1] (setting [3]) and in data set [2] (Homo sapiens) were 0.63 ± 0.29 µM and 2.97 ± 0.23 µM, respectively. Besides, the “expression of Bax” value in the data set with Bax is on record as “strongly increased”. In addition, the “level of P-STAT3” value in the data set with P-STAT3 is “clearly inhibited”. Further, the “level of caspase 3” value in the data set with caspase 3 is on record as “decreased”. Also, in the data set on Bim, the “expression of Bim” value is reported as “strongly increased”. Further, the “induction of cell apoptosis” value in the data set on HepG-2 cells is on record as “significantly induced cell apoptosis in a dose-dependent manner”.
Turning to `CC(=O)OC(C)(C)/C=C/C(=O)[C@](C)(O)C1[C@H](OC(=O)CCC(=O)OCCCCCCCCCCOc2no[n+]([O-])c2S(=O)(=O)c2ccccc2)C[C@@]2(C)C3CC=C4C(CC(O)C(=O)C4(C)C)[C@]3(C)C(=O)C[C@]12C` (stereo partly drawn) [Compound 10i, 4-((10-((4-(((9R,13R,14S,16R)-17-((R,E)-6-Acetoxy-2-hydroxy-6-methyl-3-oxohept-4-en-2-yl)-2-hydroxy-4,4,9,13,14-pentamethyl-3,11-dioxo-2,3,4,7,8,9,10,11,12,13,14,15,16,17-tetradecahydro-1H-cyclopenta[a]phenanthren-16-yl)oxy)-4-oxobutanoyl)oxy)decyl)oxy)-3-(phenylsulfonyl)-1,2,5-oxadiazole 2-oxide], the IC50 in data set [1] (setting [3]) is 6.92 ± 0.75 µM; in data set [2] (Homo sapiens) it was 3.27 ± 0.43 µM.
As to `CC(=O)OC(C)(C)/C=C/C(=O)[C@](C)(O)C1[C@H](OC(=O)CCC(=O)OCCCCCCCCCCCOc2no[n+]([O-])c2S(=O)(=O)c2ccccc2)C[C@@]2(C)C3CC=C4C(CC(O)C(=O)C4(C)C)[C@]3(C)C(=O)C[C@]12C` (stereo partly drawn) [Compound 10j, 4-((11-((4-(((9R,13R,14S,16R)-17-((R,E)-6-Acetoxy-2-hydroxy-6-methyl-3-oxohept-4-en-2-yl)-2-hydroxy-4,4,9,13,14-pentamethyl-3,11-dioxo-2,3,4,7,8,9,10,11,12,13,14,15,16,17-tetradecahydro-1H-cyclopenta[a]phenanthren-16-yl)oxy)-4-oxobutanoyl)oxy)undecyl)oxy)-3-(phenylsulfonyl)-1,2,5-oxadiazole 2-oxide], the IC50 was found to be 10.3 ± 1.11 µM in data set [1] (setting [3]) and 6.69 ± 3.95 µM in data set [2] (Homo sapiens).
With `CC(=O)OC(C)(C)/C=C/C(=O)[C@](C)(O)C1[C@H](OC(=O)CCC(=O)OCCCCCCCCCCCCOc2no[n+]([O-])c2S(=O)(=O)c2ccccc2)C[C@@]2(C)C3CC=C4C(CC(O)C(=O)C4(C)C)[C@]3(C)C(=O)C[C@]12C` (stereo partly drawn) [Compound 10k, 4-((12-((4-(((9R,13R,14S,16R)-17-((R,E)-6-Acetoxy-2-hydroxy-6-methyl-3-oxohept-4-en-2-yl)-2-hydroxy-4,4,9,13,14-pentamethyl-3,11-dioxo-2,3,4,7,8,9,10,11,12,13,14,15,16,17-tetradecahydro-1H-cyclopenta[a]phenanthren-16-yl)oxy)-4-oxobutanoyl)oxy)dodecyl)oxy)-3-(phenylsulfonyl)-1,2,5-oxadiazole 2-oxide], the IC50 in data set [1] (setting [3]) and in data set [2] (Homo sapiens) was over 20 µM throughout.
As for `CC(=O)OC(C)(C)/C=C/C(=O)[C@](C)(O)C1[C@H](OC(=O)CCC(=O)OC/C=C/COc2no[n+]([O-])c2S(=O)(=O)c2ccccc2)C[C@@]2(C)C3CC=C4C(CC(O)C(=O)C4(C)C)[C@]3(C)C(=O)C[C@]12C` (stereo partly drawn) [Compound 10l, 4-(((E)-4-((4-(((9R,13R,14S,16R)-17-((R,E)-6-Acetoxy-2-hydroxy-6-methyl-3-oxohept-4-en-2-yl)-2-hydroxy-4,4,9,13,14-pentamethyl-3,11-dioxo-2,3,4,7,8,9,10,11,12,13,14,15,16,17-tetradecahydro-1H-cyclopenta[a]phenanthren-16-yl)oxy)-4-oxobutanoyl)oxy)but-2-en-1-yl)oxy)-3-(phenylsulfonyl)-1,2,5-oxadiazole 2-oxide], the results for the half-inhibitory concentration (IC50) in data set [1] (setting [3]) and in [2] (Homo sapiens) were 1.01 ± 0.4 µM and 2.72 ± 0.38 µM, respectively.
For `CC(=O)OC(C)(C)/C=C/C(=O)[C@](C)(O)C1[C@H](OC(=O)CCC(=O)OCC#CCOc2no[n+]([O-])c2S(=O)(=O)c2ccccc2)C[C@@]2(C)C3CC=C4C(CC(O)C(=O)C4(C)C)[C@]3(C)C(=O)C[C@]12C` (stereo partly drawn) [Compound 10m, 4-((4-((4-(((9R,13R,14S,16R)-17-((R,E)-6-Acetoxy-2-hydroxy-6-methyl-3-oxohept-4-en-2-yl)-2-hydroxy-4,4,9,13,14-pentamethyl-3,11-dioxo-2,3,4,7,8,9,10,11,12,13,14,15,16,17-tetradecahydro-1H-cyclopenta[a]phenanthren-16-yl)oxy)-4-oxobutanoyl)oxy)but-2-yn-1-yl)oxy)-3-(phenylsulfonyl)-1,2,5-oxadiazole 2-oxide], the IC50 is 1.35 ± 0.1 µM in data set [1] (setting [3]) and 2.94 ± 0.09 µM in data set [2] (Homo sapiens).
For the compound `CC(=O)OC(C)(C)/C=C/C(=O)[C@](C)(O)C1[C@H](OC(=O)CCC(=O)OCC(C)(C)COc2no[n+]([O-])c2S(=O)(=O)c2ccccc2)C[C@@]2(C)C3CC=C4C(CC(O)C(=O)C4(C)C)[C@]3(C)C(=O)C[C@]12C` (stereo partly drawn) [Compound 10n, 4-(3-((4-(((9R,13R,14S,16R)-17-((R,E)-6-Acetoxy-2-hydroxy-6-methyl-3-oxohept-4-en-2-yl)-2-hydroxy-4,4,9,13,14-pentamethyl-3,11-dioxo-2,3,4,7,8,9,10,11,12,13,14,15,16,17-tetradecahydro-1H-cyclopenta[a]phenanthren-16-yl)oxy)-4-oxobutanoyl)oxy)-2,2-dimethylpropoxy)-3-(phenylsulfonyl)-1,2,5-oxadiazole 2-oxide], the IC50 came to 1.11 ± 0.22 µM in [1] (setting [3]) and 3.31 ± 0.18 µM in data set [2] (Homo sapiens).
Consider `CC(=O)OC(C)(C)/C=C/C(=O)[C@](C)(O)C1[C@H](OC(=O)CCC(=O)OCc2ccc(COc3no[n+]([O-])c3S(=O)(=O)c3ccccc3)cc2)C[C@@]2(C)C3CC=C4C(CC(O)C(=O)C4(C)C)[C@]3(C)C(=O)C[C@]12C` (stereo partly drawn) [Compound 10o, 4-((4-(((4-(((9R,13R,14S,16R)-17-((R,E)-6-Acetoxy-2-hydroxy-6-methyl-3-oxohept-4-en-2-yl)-2-hydroxy-4,4,9,13,14-pentamethyl-3,11-dioxo-2,3,4,7,8,9,10,11,12,13,14,15,16,17-tetradecahydro-1H-cyclopenta[a]phenanthren-16-yl)oxy)-4-oxobutanoyl)oxy)methyl)benzyl)oxy)-3-(phenylsulfonyl)-1,2,5-oxadiazole 2-oxide], for which the IC50 is 1.02 ± 0.28 µM in data set [1] (setting [3]) and 3 ± 0.26 µM in data set [2] (Homo sapiens).
For `CC(=O)OC(C)(C)/C=C/C(=O)[C@](C)(O)C1[C@H](OC(=O)CCC(=O)O)C[C@@]2(C)C3CC=C4C(C[C@H](O)C(=O)C4(C)C)[C@]3(C)C(=O)C[C@]12C` (stereo partly drawn) [Compound 11, 4-(((2S,9R,13R,14S,16R)-17-((R,E)-6-Acetoxy-2-hydroxy-6-methyl-3-oxohept-4-en-2-yl)-2-hydroxy-4,4,9,13,14-pentamethyl-3,11-dioxo-2,3,4,7,8,9,10,11,12,13,14,15,16,17-tetradecahydro-1H-cyclopenta[a]phenanthren-16-yl)oxy)-4-oxobutanoic acid] the same measures were over 20 µM and over 20 µM.
With “cucurbitacin B [Compound 1, reference compound]”, the IC50 was determined as 0.06 ± 0.02 µM in [1] (72 h incubation) and 0.019 ± 0.003 µM in [2].

In general, IC50 refers to the midpoint of a concentration-inhibition curve.
